According to patent US8148427B2, “Benzylamine derivative or pharmaceutically acceptable acid addition salt thereof, and use thereof for medical purposes” (Toray Industries, Inc., priority 2007, dated 2012):
Read-outs that look alike come from different tables or passages of the source. Marks after values point to notes of the source that are not given here.

Tests used:
[1] = test system: isolated bladder smooth muscle; assay: Relaxing activity test against isolated bladder smooth muscle in rat; conditions: resting tension of isolated rat bladder; relaxation by 10 μM forskolin = 100%
Description: This method was carried out in accordance with the literature [J. Pharmacol. Exp. Ther., 293, 939 (2000)]. Each bladder was isolated from a normal Spague-Dawley rat, and a bladder section of the size of about 2×10 mm was prepared in the nutrient solution (Krebs solution [NaCl 118 mM; KCl 4.7 mM; NaH2PO4 1.1 mM; glucose 10 mM; NaHCO3 25 mM; MgCl2.7H2O 1 mM; CaCl2.2H2O 2.5 mM]) sufficiently oxygenated with 95% O2+5% CO2. The sample was suspended in a Magnus tube filled with the nutrient solution (Krebs solution) aerated with 95% O2+5% CO2 at 37° C., and stabilized under a load of 0.5 g for 60 minutes or longer. The resting tension of the bladder sample was recorded in a pen recorder through a tension transducer. The test compound was cumulatively applied about every 10 minutes. […] The test compound was dissolved in distilled water or aqueous 10% dimethylsulfoxide solution.

[2] = target: T1, human adrenergic β3 receptor (Homo sapiens, UniProt P13945); assay: Agonistic activity (cAMP production) against human adrenergic β3 receptor in SK-N-MC cells; assay type: cell-based
T1 construct: evaluated using SK-N-MC cells in the presence of a selective adrenergic β1 receptor antagonist; endogenous in cells; host or cells: SK-N-MC cells
Description: (§1) This method was carried out according to the literature [J. Pharmacol. Exp. Ther., 271, 1253 (1994)] or [Naunyn-Schmiedeberg's Arch. Pharmacol., 369, 151 (2004)], using the amount of the production of cAMP as an index. The agonistic activity against human adrenergic β3 receptor was evaluated using SK-N-MC cells in the presence of a selective adrenergic β1 receptor antagonist (CGP-20712A, 1 μM). Evaluation of the agonistic activities against human adrenergic β2 and β1 receptors was carried out using CHO-K1 cells forcibly-expressed each receptor. Their cells were cultured in a culture flask. In assay day, they were detached and collected with EDTA, followed by dispensing in a 384-well plate so as to attain 10,000 cells/well. The test compound of each concentration was added to each well and allowed to react in a CO2 incubator at 37° C. for 30 minutes, followed by quantification of the produced cAMP using cAMP detection kit (Perkinelmer). The logarithm of the 50% reaction concentration of each test compound was calculated taking the reaction by 100 or 300 nM Isoproterenol as 100%. The test drug was added up to 10 μM, and in cases where reaction of not less than 50% was not observed at this concentration, the result was represented as n.d. (not detected).

female Spague-Dawley rat [3] = assay: Number of voiding episodes in rat natural voiding behavior test; assay type: in vivo; conditions: 1 hour after administration
Description: This method was carried out according to the literature [Jpn. J. Pharmacol., 87, 27 (2001)]. Each female Spague-Dawley rat was placed in a urine collection cage, and an electronic balance was placed under the cage. Excreted urine was allowed to fall into a urine collection tray placed on the electronic balance, and its change in weight every 10 seconds was scaled with time through a personal computer. Not less than 0.1 g of the change in weight was regarded as indicative of urination, and the weight of 1 g was regarded as corresponding to 1 mL of urine. Drug administration was carried out subcutaneously, and the number of voiding episodes was measured for 1 hour before and after the drug administration, to observe its change (number of cases: 11 to 18/group).
Significant difference test was carried out by student's-test or williams test, wherein a significance level of less than 5% was accepted as significant (* in the table).

[4] = target: T2, human adrenergic β2 receptor (Homo sapiens, UniProt P07550); assay: Agonistic activity (cAMP production) against human adrenergic β2 receptor in CHO-K1 cells; assay type: cell-based
T2 construct: expressed in transfected cells; host or cells: CHO-K1 cells
Description: as §1

female Spague-Dawley rat [5] = assay: Effect on cardiovascular system in conscious rats; assay type: in vivo; conditions: 30 minutes, relative to before administration
Description: (§2) This method was carried out in accordance with the literature [Experimental Methods in Pharmacology, 5th Revised Edition, p. 168, KYODO ISHO SHUPPAN CO., LTD.]
Each female Spague-Dawley rat was anesthetized with ether, and a polyethylene cannula was inserted into the left common carotid artery and fixed therein, followed by subcutaneously indwelling a cannula for drug administration. After recovery from anesthesia, the mean blood pressure and the heart rate were measured under free moving conditions.

female Spague-Dawley rat [6] = assay: Effect on cardiovascular system in anesthetized rats; assay type: in vivo; conditions: cumulative, 30 minutes, relative to before administration
Description: as §2
Each female Spague-Dawley rat was anesthetized with urethane, and a polyethylene cannula was inserted into the left common carotid artery and fixed therein, to measure the mean blood pressure and the heart rate. […] Data were represented as amounts of the changes (blood pressure: mmHg, heart rate: %) relative to values before the administration (number of cases: 3 to 8/group).

[7] = test system: isolated bladder smooth muscle; assay: Relaxing activity against isolated bladder smooth muscle in human; conditions: relaxation by 10 μM forskolin = 100%
Description: This method was carried out in accordance with the literature [J. Urology, 165, 240 (2001)].
A normal part (non-cancerous part) of the bladder removed from a human male (32-72 years old) by bladder cancer surgery was used. A bladder section sizing about 3×10 mm was prepared in the nutrient solution (Krebs solution [NaCl 118 mM; KCl 4.7 mM; NaH2PO4 1.2 mM; glucose 10 mM; NaHCO3 25 mM; MgCl2.7H2O 1.2 mM; CaCl2.2H2O 2.5 mM]) sufficiently oxygenated with 95% O2+5% CO2. The sample was suspended in a Magnus tube filled with the nutrient solution (Krebs solution) aerated with 95% O2+5% CO2 at 37° C., and stabilized under a load of 0.5 g for 60 minutes or longer. The resting tension of the bladder sample was recorded in a pen recorder through a tension transducer. The test compound was cumulatively applied about every 10 minutes. The test compound was dissolved in distilled water or aqueous 10% DMSO solution (number of cases: 3 to 4/group).

female Spague-Dawley rat [8] = assay: Number of voiding episodes in rat natural voiding behavior test; assay type: in vivo; conditions: 3 hours after the administration
[9] = SK-N-MC cells, cAMP, with CGP-20712A 1 μM, 100 or 300 nM Isoproterenol = 100%, tested up to 10 μM, read-out: β3 (logarithm of the 50% reaction concentration) (converted)

T1 sequence (P13945 whole entry): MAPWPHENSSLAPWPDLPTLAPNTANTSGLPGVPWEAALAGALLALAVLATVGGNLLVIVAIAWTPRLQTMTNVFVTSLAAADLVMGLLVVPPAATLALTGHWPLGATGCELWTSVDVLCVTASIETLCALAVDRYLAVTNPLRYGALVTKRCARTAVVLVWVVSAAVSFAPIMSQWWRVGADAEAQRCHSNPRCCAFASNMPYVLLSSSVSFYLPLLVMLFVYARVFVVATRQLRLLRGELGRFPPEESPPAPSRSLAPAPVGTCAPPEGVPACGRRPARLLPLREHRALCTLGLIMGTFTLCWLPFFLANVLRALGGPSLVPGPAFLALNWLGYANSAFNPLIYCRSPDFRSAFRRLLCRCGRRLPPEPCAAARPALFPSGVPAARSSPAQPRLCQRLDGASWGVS
T2 sequence (P07550 whole entry): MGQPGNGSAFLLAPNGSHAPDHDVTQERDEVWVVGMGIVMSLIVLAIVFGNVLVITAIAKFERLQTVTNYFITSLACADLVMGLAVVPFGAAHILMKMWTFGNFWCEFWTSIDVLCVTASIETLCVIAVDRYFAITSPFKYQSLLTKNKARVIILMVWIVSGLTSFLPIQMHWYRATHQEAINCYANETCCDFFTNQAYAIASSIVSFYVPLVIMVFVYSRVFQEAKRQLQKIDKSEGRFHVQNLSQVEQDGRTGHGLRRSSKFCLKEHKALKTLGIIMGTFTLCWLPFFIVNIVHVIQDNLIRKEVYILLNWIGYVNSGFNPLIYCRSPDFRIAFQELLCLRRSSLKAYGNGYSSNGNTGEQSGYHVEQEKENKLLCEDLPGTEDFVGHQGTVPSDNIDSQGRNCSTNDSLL

Compound	EC50 [1] [µM]	EC50 [2, 9] [µM]	Number of Voiding Episodes (female Spague-Dawley rat [3]; 3 mg/kg subcutaneously)	EC50 [2] [µM]	Change in Blood Pressure (female Spague-Dawley rat [6]; 3 mg/kg subcutaneously) [mmHg]	EC50 [7] [µM]	further results
C[C@H](NCc1cc(C(F)(F)F)cc(C(F)(F)F)c1)[C@H](O)c1ccc(O)c(NS(C)(=O)=O)c1 [Example 2, N-(5-((1R,2S)-2-(3,5-Bis(trifluoromethyl)benzylamino)-1-hydroxypropyl)-2-hydroxyphenyl)methanesulfonamide]	0.0363	0.0316	0.45 ± 0.21*				
C[C@H](NCc1cc(Cl)cc(Cl)c1)[C@H](O)c1ccc(O)c(NS(C)(=O)=O)c1 [Example 3, N-(5-((1R,2S)-2-(3,5-Dichlorobenzylamino)-1-hydroxypropyl)-2-hydroxyphenyl)methane-sulfonamide]	0.0891		0.50 ± 0.15*	0.0219			EC50 [4]: 1.07 µM
COc1cc(CN[C@@H](C)[C@H](O)c2ccc(O)c(NS(C)(=O)=O)c2)cc(OC)c1 [Example 1, N-(5-((1R,2S)-2-(3,5-Dimethoxybenzylamino)-1-hydroxypropyl)-2-hydroxyphenyl)methane-sulfonamide]	0.229	0.0398			−25.0 ± 3.6	0.562	Change in Blood Pressure (female Spague-Dawley rat [5]; 0.3 mg/kg subcutaneously): −6.5 ± 5.5 mmHg; Change in Heart Rate (female Spague-Dawley rat [5]; 0.3 mg/kg subcutaneously): 107.7 ± 3.5%; Change in Blood Pressure (female Spague-Dawley rat [6]; 0.3 mg/kg subcutaneously): −25.2 ± 4.7 mmHg; Change in Heart Rate (female Spague-Dawley rat [6]; 0.3 mg/kg subcutaneously): 121.7 ± 4.2%; Change in Blood Pressure (female Spague-Dawley rat [6]; 1 mg/kg subcutaneously): −25.4 ± 2.3 mmHg; Change in Heart Rate (female Spague-Dawley rat [6]; 1 mg/kg subcutaneously): 126.4 ± 5.1%; Change in Heart Rate (female Spague-Dawley rat [6]; 3 mg/kg subcutaneously): 135.2 ± 8.4%; EC50 ([4]; CHO-K1 cells, cAMP, 100 or 300 nM Isoproterenol = 100%, tested up to 10 μM, n.d. = not detected at 10 μM, read-out: β2 (logarithm of the 50% reaction concentration) (converted)): 2.34 µM; Number of Voiding Episodes (female Spague-Dawley rat [3]; 0.1 mg/kg subcutaneously): 1.06 ± 0.17; Number of Voiding Episodes (female Spague-Dawley rat [3]; 0.3 mg/kg subcutaneously): 0.83 ± 0.12*; Number of Voiding Episodes (female Spague-Dawley rat [3]; 1 mg/kg subcutaneously): 0.94 ± 0.17*
Nc1nc(CC(=O)Nc2ccc(CCNC[C@H](O)c3ccccc3)cc2)cs1 [Compound 11, reference compound]			0.67 ± 0.19		−17.1 ± 3.5		Change in Blood Pressure (female Spague-Dawley rat [5]; 3 mg/kg subcutaneously): −22.5 ± 5.6 mmHg; Change in Heart Rate (female Spague-Dawley rat [6]; 3 mg/kg subcutaneously, 3 mg/kg): 133.5 ± 8.2 %; effect of decreasing the frequency of voiding episodes (female Spague-Dawley rat [8]): significant effect; Number of Voiding Episodes (female Spague-Dawley rat [3]; 3 mg/kg subcutaneously, listed as compound 11): did not show a significant effect
COc1cc(CN[C@@H](C)[C@H](O)c2ccc(O)c(NS(C)(=O)=O)c2)cc(OC)c1OC [Example 4, N-(2-Hydroxy-5-((1R,2S)-1-hydroxy-2-(3,4,5-trimethoxybenzylamino)propyl)phenyl)methane-sulfonamide]	0.0741	0.0331	0.33 ± 0.19*			0.708	
Cc1cc(C)cc(CN[C@@H](C)[C@H](O)c2ccc(O)c(NS(C)(=O)=O)c2)c1 [Example 5, N-(5-((1R,2S)-2-(3,5-Dimethylbenzylamino)-1-hydroxypropyl)-2-hydroxyphenyl)methane-sulfonamide]	0.151		0.50 ± 0.15*	0.0724		0.575	
